Results as given in publication PMC8501045, “Addressing MRSA infection and antibacterial resistance with peptoid polymers” (Nature Communications, 2021).
Values joined by “and” are separate entries in the source; they are usually repeats but may differ in a detail not shown here. Equal entries are not always repeated.

Legend:
S. epidermidis 9397 = assay: Mouse peritonitis model, CFU in organs, blood and IP fluid, S. epidermidis; format: in vivo; settings: Figure 6e
Description: (§1) This infection model was conducted according to the previously reported method with slight modification. Female ICR mice (21–24 g) were used for MRSA-infected peritonitis model. Mice were infected by intraperitoneal administration of 0.2 mL of S. aureus USA300 LAC in saline (7.5 × 10^8 CFU/mL) supplemented with 5% mucin. […] Once the infected mice died, peritoneal lavage was performed by injecting 3.0 mL of saline into the peritoneal cavity and massaging the abdomen. Subsequently, the abdomen was opened and peritoneal fluid was recovered from the abdominal cavity for analysis. Blood samples were collected through cardiac puncture for analysis of CFU/mL. Then, different organs including the heart, liver, spleen, lung, and kidney were removed and homogenized in 0.1% TX-100 solution. The homogenate was serially diluted for plating on LB agar. After incubation at 37 °C for 14 h, the number of colonies on the plate was counted to calculate the bacteria burden. Surviving mice were euthanized at 48 h after infection. The blood, peritoneal fluid, and organs were collected for the determination of bacterial colonies. […] For the pretreatment group, mice were sacrificed and tissues were harvested to determine the CFU at 1 h post infection.
For experiments of S. epidermidis and S. haemolyticus infections, female ICR mice (22–24 g) were rendered neutropenic by treatment with 150 and 100 mg/kg of cyclophosphamide intraperitoneally at 4 days and 1 day prior to infection. Mice were infected by intraperitoneal administration of 0.2 mL of S. epidermidis 9397 (5.1 × 10^9 CFU/mL) or S. haemolyticus 0202 (2.6 × 10^9 CFU/mL) in saline. Other experiment conditions were similar to those in MRSA peritonitis model.

S. haemolyticus 0202 = assay: Mouse peritonitis model, survival test, S. haemolyticus; format: in vivo; settings: i.p. 20 mg/kg, 7 days
Description: as §1, with “post infection. […]” for “post infection.”

[1] = system: S. aureus USA300 mature biofilm; assay: Activity against mature biofilm; format: cell-based, Staphylococcus aureus; settings: for Biofilm survival(%): vancomycin, r4-r9 = 32, 64, 128, 256, 512, 1024 MIC
Description: The plate was incubated at 37 °C for 24 h to allow biofilm formation. […] Then MTT assay was used to determine the biofilm viability. Wells containing inoculum and without antibacterial agents were used as the positive control; wells containing only MH medium were used as the blank. The percentage of surviving cells within biofilm was calculated from5 %cellviability=A570polymer-A570blank/A570control-A570blank×100
(§2) The test was independently repeated at least three times.

[2] = system: S. aureus USA300 biofilm formation; assay: Inhibition study on biofilm formation; format: cell-based, Staphylococcus aureus
Description: The plate was incubated at 37 °C for 24 h, and then the culture medium was removed, washed with PBS once, followed by adding 100 µL MTT solution (0.5 mg/mL) into the corresponding well. After further incubation at 37 °C for 4 h in the dark, the MTT solution was removed. An aliquot of 100 μL DMSO was added to each well to solubilize the purple solid and then the OD value was collected at 570 nm on a microplate reader. Wells containing inoculum and without antibacterial agents were used as the positive control; wells containing only MH medium were used as the blank. The percentage of surviving cells within biofilm was calculated from4 %cellviability=A570polymer-A570blank/A570control-A570blank×100
as §2

SMILES: CN[C@H](CC(C)C)C(=O)N[C@H]1C(=O)N[C@@H](CC(N)=O)C(=O)N[C@H]2C(=O)N[C@H]3C(=O)N[C@H](C(=O)N[C@H](C(=O)O)c4cc(O)cc(O)c4-c4cc3ccc4O)[C@H](O)c3ccc(c(Cl)c3)Oc3cc2cc(c3O[C@@H]2O[C@H](CO)[C@@H](O)[C@H](O)[C@H]2O[C@H]2C[C@](C)(N)[C@H](O)[C@H](C)O2)Oc2ccc(cc2Cl)[C@H]1O [Vancomycin]
- Log10(CFU/mL IP fluid) (S. epidermidis 9397; individual mouse 3 of 6): 4.068 Log10(CFU/mL)
- Log10(CFU/mL IP fluid) (S. epidermidis 9397; individual mouse 4 of 6): 3.222 Log10(CFU/mL)
- Log10(CFU/mL IP fluid) (S. epidermidis 9397; individual mouse 5 of 6): 3.067 Log10(CFU/mL)
- Log10(CFU/mL IP fluid) (S. epidermidis 9397; individual mouse 6 of 6): 4.206 Log10(CFU/mL)
- Log10(CFU/mL Blood) (S. epidermidis 9397; individual mouse 1 of 6): 4.311 Log10(CFU/mL)
- Log10(CFU/mL Blood) (S. epidermidis 9397; individual mouse 2 of 6): 4.38 Log10(CFU/mL)
- Log10(CFU/mL Blood) (S. epidermidis 9397; individual mouse 3 of 6): 2.602 Log10(CFU/mL)
- Log10(CFU/mL Blood) (S. epidermidis 9397; individual mouse 4 of 6): 2.824 Log10(CFU/mL)
- Log10(CFU/mL Blood) (S. epidermidis 9397; individual mouse 5 of 6): 0 Log10(CFU/mL)
- Log10(CFU/mL Blood) (S. epidermidis 9397; individual mouse 6 of 6): 2.301 Log10(CFU/mL)
- Log10(CFU/g Heart) (S. epidermidis 9397; individual mouse 1 of 6): 5.45 Log10(CFU/g)
- Log10(CFU/g Heart) (S. epidermidis 9397; individual mouse 2 of 6): 5.747 Log10(CFU/g)
- Log10(CFU/g Heart) (S. epidermidis 9397; individual mouse 3 of 6): 5.222 Log10(CFU/g)
- Log10(CFU/g Heart) (S. epidermidis 9397; individual mouse 4 of 6): 5.315 Log10(CFU/g)
- Log10(CFU/g Heart) (S. epidermidis 9397; individual mouse 5 of 6): 4.186 Log10(CFU/g)
- Log10(CFU/g Heart) (S. epidermidis 9397; individual mouse 6 of 6): 4.735 Log10(CFU/g)
- Log10(CFU/g Kidney) (S. epidermidis 9397; individual mouse 1 of 6): 6.633 Log10(CFU/g)
- Log10(CFU/g Kidney) (S. epidermidis 9397; individual mouse 2 of 6): 6.452 Log10(CFU/g)
- Log10(CFU/g Kidney) (S. epidermidis 9397; individual mouse 3 of 6): 4.81 Log10(CFU/g)
- Log10(CFU/g Kidney) (S. epidermidis 9397; individual mouse 4 of 6): 4.699 Log10(CFU/g)
- Log10(CFU/g Kidney) (S. epidermidis 9397; individual mouse 5 of 6): 4.119 Log10(CFU/g)
- Log10(CFU/g Kidney) (S. epidermidis 9397; individual mouse 6 of 6): 4.752 Log10(CFU/g)
- Log10(CFU/g Liver) (S. epidermidis 9397; individual mouse 1 of 6): 7.125 Log10(CFU/g)
- Log10(CFU/g Liver) (S. epidermidis 9397; individual mouse 2 of 6): 7.288 Log10(CFU/g)
- Log10(CFU/g Liver) (S. epidermidis 9397; individual mouse 3 of 6): 4.887 Log10(CFU/g)
- Log10(CFU/g Liver) (S. epidermidis 9397; individual mouse 4 of 6): 4.845 Log10(CFU/g)
- Log10(CFU/g Liver) (S. epidermidis 9397; individual mouse 5 of 6): 3.985 Log10(CFU/g)
- Log10(CFU/g Liver) (S. epidermidis 9397; individual mouse 6 of 6): 5.176 Log10(CFU/g)
- Log10(CFU/g Lung) (S. epidermidis 9397; individual mouse 1 of 6): 6.477 Log10(CFU/g)
- Log10(CFU/g Lung) (S. epidermidis 9397; individual mouse 2 of 6): 5.954 Log10(CFU/g)
- Log10(CFU/g Lung) (S. epidermidis 9397; individual mouse 3 of 6): 6.211 Log10(CFU/g)
- Log10(CFU/g Lung) (S. epidermidis 9397; individual mouse 4 of 6): 5.171 Log10(CFU/g)
- Log10(CFU/g Lung) (S. epidermidis 9397; individual mouse 5 of 6): 3.564 Log10(CFU/g)
- Log10(CFU/g Lung) (S. epidermidis 9397; individual mouse 6 of 6): 4.434 Log10(CFU/g)
- Log10(CFU/g Spleen) (S. epidermidis 9397; individual mouse 1 of 6): 7.954 Log10(CFU/g)
- Log10(CFU/g Spleen) (S. epidermidis 9397; individual mouse 2 of 6): 7.349 Log10(CFU/g)
- Log10(CFU/g Spleen) (S. epidermidis 9397; individual mouse 3 of 6): 7.368 Log10(CFU/g)
- Log10(CFU/g Spleen) (S. epidermidis 9397; individual mouse 4 of 6): 5.666 Log10(CFU/g)
- Log10(CFU/g Spleen) (S. epidermidis 9397; individual mouse 5 of 6): 5.977 Log10(CFU/g)
- Log10(CFU/g Spleen) (S. epidermidis 9397; individual mouse 6 of 6): 6.041 Log10(CFU/g)
- survival of the mice (S. haemolyticus 0202): 100%
- concentration that eradicates mature biofilms of S. aureus [1]: > 1024 × MIC
- Biofilm survival(%) ([1]; replicate 1): 57.1927% and 41.3774% and 45.7038% and 29.4643% and 29.3131% and 28.1882%
- Biofilm survival(%) ([1]; replicate 2): 57.8677% and 50.7936% and 39.7472% and 30.2942% and 28.1255% and 26.0416%
- concentration required to inhibit the formation of S. aureus biofilm [2]: 2 × MIC
